Columns and labels:
Adenosine receptor A2a [1] = target: T1, Adenosine receptor A2a (Homo sapiens, UniProt P29274); test: Displacement of [3H]ZM241385 at human A2A receptor expressed in CHO cell membrane at 1 uM after 60 mins by scintillation counting method; assay type: cell membranes
Adenosine receptor A3 [2] = target: T2, Adenosine receptor A3 (Homo sapiens, UniProt P0DMS8); test: Displacement of [125I]AB-MECA at human […] receptor expressed in CHO cell membrane after 60 mins by scintillation counting method; assay type: cell membranes
T2 sequence (P0DMS8 whole entry): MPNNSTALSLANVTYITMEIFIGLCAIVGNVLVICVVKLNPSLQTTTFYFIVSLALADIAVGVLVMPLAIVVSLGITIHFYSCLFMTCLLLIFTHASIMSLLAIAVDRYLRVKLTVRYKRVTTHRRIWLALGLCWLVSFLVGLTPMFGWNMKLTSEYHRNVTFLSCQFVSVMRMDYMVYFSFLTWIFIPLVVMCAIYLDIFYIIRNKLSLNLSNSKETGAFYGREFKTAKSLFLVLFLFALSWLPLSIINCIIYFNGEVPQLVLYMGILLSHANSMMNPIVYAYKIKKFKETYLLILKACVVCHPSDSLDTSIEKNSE

[3] = target: T3, Adenosine receptor A1 (Homo sapiens) (UniProt P30542); test: Displacement of [3H]DPCPX at human A1 receptor expressed in CHO cell membrane at 1 uM after 120 mins by scintillation counting method; assay type: cell membranes
T3 sequence (whole entry): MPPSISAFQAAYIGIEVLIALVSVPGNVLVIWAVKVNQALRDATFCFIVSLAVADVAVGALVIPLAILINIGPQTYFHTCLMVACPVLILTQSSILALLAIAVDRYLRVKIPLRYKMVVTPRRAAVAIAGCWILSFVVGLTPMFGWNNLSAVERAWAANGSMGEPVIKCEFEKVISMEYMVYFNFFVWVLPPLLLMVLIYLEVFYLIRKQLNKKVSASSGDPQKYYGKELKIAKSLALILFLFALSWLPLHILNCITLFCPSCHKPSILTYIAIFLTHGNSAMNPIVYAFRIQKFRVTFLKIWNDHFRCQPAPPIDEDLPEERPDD

[4] = target: T4, Adenosine receptor A2b (Homo sapiens) (UniProt P29275); test: Antagonist activity at human A2B receptor expressed in CHO cells assessed as inhibition of NECA-stimulated cAMP production at 1 uM by scintillation counting method; assay type: functional, cell-based
T4 sequence (whole entry): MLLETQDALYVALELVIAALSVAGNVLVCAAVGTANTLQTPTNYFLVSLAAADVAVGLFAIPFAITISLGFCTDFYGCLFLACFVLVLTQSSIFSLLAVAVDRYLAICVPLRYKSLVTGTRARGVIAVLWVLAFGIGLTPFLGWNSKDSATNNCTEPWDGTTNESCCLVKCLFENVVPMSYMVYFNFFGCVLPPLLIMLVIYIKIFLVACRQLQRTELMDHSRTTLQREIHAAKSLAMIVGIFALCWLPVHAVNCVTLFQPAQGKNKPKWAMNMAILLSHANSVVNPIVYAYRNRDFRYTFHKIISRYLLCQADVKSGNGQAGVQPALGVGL

Adenosine receptor A3 [5] = target: T5, Adenosine receptor A3 (Rattus norvegicus, UniProt P28647); test: Displacement of [125I]AB-MECA at rat A3 receptor expressed in HEK293 cells after 60 mins by scintillation counting method; assay type: cell-based
T5 sequence (P28647 whole entry): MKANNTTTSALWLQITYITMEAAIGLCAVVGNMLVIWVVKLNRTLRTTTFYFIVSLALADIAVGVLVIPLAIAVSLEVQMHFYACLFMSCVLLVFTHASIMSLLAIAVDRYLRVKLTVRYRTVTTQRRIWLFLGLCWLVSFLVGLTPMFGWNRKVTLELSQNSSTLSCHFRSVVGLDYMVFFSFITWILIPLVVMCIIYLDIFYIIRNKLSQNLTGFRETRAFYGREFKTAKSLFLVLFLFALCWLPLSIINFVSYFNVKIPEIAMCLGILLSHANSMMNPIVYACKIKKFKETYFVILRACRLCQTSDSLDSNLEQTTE

Adenosine receptor A3 [6] = target: T2, Adenosine receptor A3; test: Antagonist activity at human A3 receptor expressed in CHO cells assessed as inhibition of Cl-IB-MECA-induced cAMP production by scintillation counting method; assay type: functional, cell-based
[7] = target: T6, Adenosine receptor A3 (Homo sapiens) (UniProt P0DMS8); test: Displacement of [125I]AB-MECA at human […] receptor expressed in CHO cell membrane at 1 uM after 60 mins by scintillation counting method; assay type: cell membranes
T6 sequence (whole entry): T2 sequence (P0DMS8 whole entry)

Adenosine receptor A1 = target: T7, Adenosine receptor A1 (Homo sapiens, UniProt P30542); test: Displacement of [3H]DPCPX at human A1 receptor expressed in CHO cell membrane after 120 mins by scintillation counting method; assay type: cell membranes
T7 sequence (P30542 whole entry): T3 sequence (whole entry)

Adenosine receptor A2a [8] = target: T1, Adenosine receptor A2a; test: Displacement of [3H]ZM241385 at human A2A receptor expressed in CHO cell membrane after 60 mins by scintillation counting method; assay type: cell membranes

T1 sequence (P29274 whole entry): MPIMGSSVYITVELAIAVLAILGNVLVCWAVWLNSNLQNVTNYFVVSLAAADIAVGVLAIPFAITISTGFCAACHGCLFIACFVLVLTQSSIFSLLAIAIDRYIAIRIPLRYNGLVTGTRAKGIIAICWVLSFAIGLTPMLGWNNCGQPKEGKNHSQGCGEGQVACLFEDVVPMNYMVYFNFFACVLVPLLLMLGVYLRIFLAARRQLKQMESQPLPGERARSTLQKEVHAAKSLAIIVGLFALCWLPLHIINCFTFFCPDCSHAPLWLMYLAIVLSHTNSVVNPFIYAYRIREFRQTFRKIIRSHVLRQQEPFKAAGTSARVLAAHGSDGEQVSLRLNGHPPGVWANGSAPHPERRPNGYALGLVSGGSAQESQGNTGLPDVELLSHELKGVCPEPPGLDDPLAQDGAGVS

inhibition (Adenosine receptor A2a [1]) [%] | Ki (Adenosine receptor A3 [2]) [nM] | inhibition [3] [%] | inhibition [4] [%] | Ki (Adenosine receptor A3 [5]) [µM] | IC50 (Adenosine receptor A3 [6]) [nM] | inhibition [7] [%] | Ki (Adenosine receptor A1) [nM] | Ki (Adenosine receptor A2a [8]) [nM] | SMILES
14 | 321 | 32 | 1 |  |  |  |  |  | Cc1nc2nn(-c3ccccc3)nc2c(=O)[nH]1
1 | 247 | 5 | 1 |  |  |  |  |  | COc1ccc(-n2cc3nc(-c4cccs4)[nH]c(=O)c3n2)cc1
1 | 6.42 | 2 | 1 | > 10 | 26 |  |  |  | COc1ccc(-c2nc(NC(=O)c3ccccc3)c3nn(-c4ccccc4)cc3n2)cc1
1 | 225 | 1 | 1 |  |  |  |  |  | Cc1nc2cn(-c3ccccc3F)nc2c(=O)[nH]1
1 | 9.83 | 3 | 1 | > 10 | 39 |  |  |  | COc1ccc(-c2nc(NC(=O)c3ccncc3)c3nn(-c4ccccc4)cc3n2)cc1
 |  |  | 3 |  |  |  |  |  | Cc1nc2cn(-c3ccccc3)nc2c(=O)[nH]1
1 | 0.027 | 1 | 1 | > 10 | 0.11 |  |  |  | COc1ccc(C(=O)Nc2nc(-c3cccs3)nc3cn(-c4ccccc4)nc23)cc1
3 | 17 | 1 | 1 |  |  |  |  |  | COc1ccc(-c2nc(N)c3nn(-c4ccc(OC)cc4)cc3n2)cc1
6 |  |  | 1 |  |  | 1 | 213 |  | Cc1nc(N)c2nn(-c3ccccc3)nc2n1
 | 9.7 |  | 27 |  |  |  | 52 | 115 | Nc1nc(-c2cccs2)nc2cn(-c3ccccc3)nc12
1 |  | 1 | 1 |  |  | 1 |  |  | Cc1nc2cn(C)nc2c(=O)[nH]1
1 | 9.54 | 20 | 1 | > 10 | 37 |  |  |  | O=C(Nc1nc(-c2cccs2)nc2cn(-c3ccccc3)nc12)c1ccncc1
1 | 2.12 | 1 | 1 | > 10 | 5.32 |  |  |  | O=C(Nc1nc(-c2cccs2)nc2cn(-c3ccccc3)nc12)c1ccccc1
1 |  | 13 | 3 |  |  | 4 |  |  | Nc1nc(-c2ccc(Cl)cc2)nc2cn(-c3ccccc3)nc12
12 |  | 1 | 1 |  |  | 30 |  |  | O=c1[nH]c(-c2ccco2)nc2cn(-c3ccccc3)nc12
3 | 0.41 |  | 1 |  | 1.01 |  | 764 |  | O=C(Nc1nc(-c2cccs2)nc2cn(-c3ccccc3)nc12)c1cccnc1
1 | 130 | 6 | 1 |  |  |  |  |  | O=c1[nH]c(-c2ccccc2)nc2cn(Cc3ccccc3)nc12
9 | 202 | 7 | 1 |  |  |  |  |  | O=C(Cc1ccccc1)Nc1nc(-c2ccccc2)nc2cn(Cc3ccccc3)nc12
21 | 2.34 |  | 1 |  | 5.47 |  | 552 |  | O=C(Nc1nc(-c2cccs2)nc2cn(-c3ccccc3)nc12)c1ccco1
1 |  | 31 | 1 |  |  | 1 |  |  | Cn1cc2nc(-c3ccccc3)nc(N)c2n1

inhibition (Adenosine receptor A2a [1]) [%] | Ki (Adenosine receptor A3 [2]) [nM] | inhibition [3] [%] | inhibition [4] [%] | Ki (Adenosine receptor A3 [5]) [µM] | IC50 (Adenosine receptor A3 [6]) [nM] | inhibition [7] [%] | Ki (Adenosine receptor A1) [nM] | Ki (Adenosine receptor A2a [8]) [nM] | SMILES
1 |  | 2 | 1 |  |  | 1 |  |  | COc1ccc(-c2nc3cn(C)nc3c(=O)[nH]2)cc1
1 | 485 | 6 | 1 |  |  |  |  |  | Cc1nc2cn(Cc3ccccc3)nc2c(=O)[nH]1
2 | 1.82 |  | 1 |  | 4.37 |  | 687 |  | O=C(c1ccco1)N(C(=O)c1ccco1)c1nc(-c2cccs2)nc2cn(-c3ccccc3)nc12
1 | 3.53 | 32 | 1 |  | 8.45 |  |  |  | O=C(Cc1ccccc1)Nc1nc(-c2cccs2)nc2cn(-c3ccccc3)nc12
35 | 250 |  | 1 |  |  |  | 400 |  | Nc1nc(Cc2cccs2)nc2cn(-c3ccccc3)nc12
1 |  | 1 | 1 |  |  | 20 |  |  | Cn1cc2nc(-c3ccccc3)[nH]c(=O)c2n1
35 | 78 | 28 | 31 |  |  |  |  |  | COc1ccc(-n2cc3nc(-c4cccs4)nc(N)c3n2)cc1
 |  |  | 5 |  |  |  |  |  | O=c1[nH]c(-c2ccccc2)nc2cn(-c3ccccc3)nc12
11 |  | 8 | 1 |  |  | 23 |  |  | O=c1[nH]c(-c2ccccc2)nc2nn(-c3ccccc3)nc12
 | 54 |  | 1 |  |  |  | 250 | 300 | Nc1nc(-c2ccccc2)nc2cn(Cc3ccccc3)nc12
3 |  | 38 | 1 |  |  | 1 |  |  | Nc1nc(-c2ccccc2)nc2nn(-c3ccccc3)nc12
33 | 432 | 31 | 7 |  |  |  |  |  | Nc1nc(-c2ccc(O)cc2)nc2cn(-c3ccccc3)nc12
14 | 413 | 6 | 1 |  |  |  |  |  | O=c1[nH]c(-c2cccs2)nc2cn(-c3ccccc3)nc12
15 | 868 | 1 | 1 |  |  |  |  |  | Cc1ccc(-c2nc3cn(-c4ccccc4)nc3c(=O)[nH]2)o1
7 | 2.43 |  | 1 |  | 5.59 |  | 466 |  | O=C(Nc1nc(-c2cccs2)nc2cn(-c3ccccc3)nc12)c1cccs1
1 | 5.87 | 18 | 1 |  | 13 |  |  |  | O=C(Nc1nc(-c2ccccc2)nc2cn(-c3ccccc3)nc12)c1cccs1
24 | 223 | 36 | 2 |  |  |  |  |  | O=C(Nc1nc(-c2ccccc2)nc2cn(Cc3ccccc3)nc12)c1ccccc1
1 | 33 | 33 | 2 |  |  |  |  |  | COc1ccc(-c2nc(N)c3nn(-c4ccccc4)cc3n2)cc1
1 | 1.31 | 3 | 1 | > 10 | 4.27 |  |  |  | COc1ccc(C(=O)Nc2nc(-c3ccc(OC)cc3)nc3cn(-c4ccccc4)nc23)cc1

Reference: ChEMBL document CHEMBL3751669, “Structural refinement of pyrazolo[4,3-d]pyrimidine derivatives to obtain highly potent and selective antagonists for the human A3 adenosine receptor” (Eur J Med Chem, 2016)
